According to the supplement of paper PMC11061612:

Experiments:
[1] = tested on: Becker (Low Grade Glioma); assay: Bliss excess, mean over the matrix (fraction); higher = more synergy
Summary of the method: (§1)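 Bliss excess equals the observed combination effect minus the expected value EA + EB − EA·EB, where EA and EB are the effects of each agent alone. Combination Emax is the second-highest inhibition within the matrix. Inhibition was scaled from CellTiter-Glo 2.0 luminescence, with 0 set by vehicle wells and 1 by blank wells, after 72 hours of two-drug dosing of cells plated in 1536-well plates.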

CHL-1 (Melanoma) [2] = assay: as above
Summary of the method: as §1

[3] = tested on: CML-T1 (Chronic Myelogenous Leukemia); assay: as above
Summary of the method: as §1

[4] = tested on: COLO-684 (Endometrial Carcinoma); assay: as above
Summary of the method: as §1

[5] = tested on: EB-3 (Burkitt's Lymphoma); assay: as above
Summary of the method: as §1

[6] = tested on: FLO-1 (Esophageal Adenocarcinoma); assay: as above
Summary of the method: as §1

[7] = tested on: HCC-44 (Lung Adenocarcinoma); assay: as above
Summary of the method: as §1

KYM-1 (Rhabdomyosarcoma) [8] = assay: as above
Summary of the method: as §1

[9] = tested on: KYSE-70 (Esophageal Squamous Cell Carcinoma); assay: as above
Summary of the method: as §1

[10] = tested on: LAMA-84 (Chronic Myelogenous Leukemia); assay: as above
Summary of the method: as §1

[11] = tested on: LOUCY (T-Lymphoblastic Leukemia); assay: as above
Summary of the method: as §1

[12] = tested on: NCI-H1755 (Lung Adenocarcinoma); assay: as above
Summary of the method: as §1

[13] = tested on: NCI-H810 (Non-Small Cell Lung Carcinoma); assay: as above
Summary of the method: as §1

[14] = tested on: NKM-1 (Acute Myeloid Leukemia); assay: as above
Summary of the method: as §1

[15] = tested on: OV-90 (Ovarian Carcinoma); assay: as above
Summary of the method: as §1

[16] = tested on: PANC-02-03 (Pancreatic Carcinoma); assay: as above
Summary of the method: as §1

[17] = tested on: PC-14 (Lung Adenocarcinoma); assay: as above
Summary of the method: as §1

[18] = tested on: RMG-I (Ovarian Carcinoma); assay: as above
Summary of the method: as §1

[19] = tested on: SK-MM-2 (Plasma Cell Myeloma); assay: as above
Summary of the method: as §1

[20] = tested on: SW684 (Other Solid Carcinomas); assay: as above
Summary of the method: as §1

[21] = tested on: Becker (Low Grade Glioma); assay: combination Emax (second highest fraction inhibited in the dose matrix, 72 h); higher = more inhibition; extreme values may be limits of the assay
Summary of the method: as §1

CHL-1 (Melanoma) [22] = assay: as above
Summary of the method: as §1

[23] = tested on: CML-T1 (Chronic Myelogenous Leukemia); assay: as above
Summary of the method: as §1

[24] = tested on: COLO-684 (Endometrial Carcinoma); assay: as above
Summary of the method: as §1

[25] = tested on: EB-3 (Burkitt's Lymphoma); assay: as above
Summary of the method: as §1

[26] = tested on: FLO-1 (Esophageal Adenocarcinoma); assay: as above
Summary of the method: as §1

[27] = tested on: HCC-44 (Lung Adenocarcinoma); assay: as above
Summary of the method: as §1

KYM-1 (Rhabdomyosarcoma) [28] = assay: as above
Summary of the method: as §1

[29] = tested on: KYSE-70 (Esophageal Squamous Cell Carcinoma); assay: as above
Summary of the method: as §1

[30] = tested on: LAMA-84 (Chronic Myelogenous Leukemia); assay: as above
Summary of the method: as §1

[31] = tested on: LOUCY (T-Lymphoblastic Leukemia); assay: as above
Summary of the method: as §1

[32] = tested on: NCI-H1755 (Lung Adenocarcinoma); assay: as above
Summary of the method: as §1

[33] = tested on: NCI-H810 (Non-Small Cell Lung Carcinoma); assay: as above
Summary of the method: as §1

[34] = tested on: NKM-1 (Acute Myeloid Leukemia); assay: as above
Summary of the method: as §1

[35] = tested on: OV-90 (Ovarian Carcinoma); assay: as above
Summary of the method: as §1

[36] = tested on: PANC-02-03 (Pancreatic Carcinoma); assay: as above
Summary of the method: as §1

[37] = tested on: PC-14 (Lung Adenocarcinoma); assay: as above
Summary of the method: as §1

[38] = tested on: RMG-I (Ovarian Carcinoma); assay: as above
Summary of the method: as §1

[39] = tested on: SK-MM-2 (Plasma Cell Myeloma); assay: as above
Summary of the method: as §1

[40] = tested on: SW684 (Other Solid Carcinomas); assay: as above
Summary of the method: as §1

SMILES	Bliss excess [1]	Bliss excess (CHL-1 (Melanoma) [2])	Bliss excess [3]	Bliss excess [4]	Bliss excess [5]	Bliss excess [6]	Bliss excess [7]	Bliss excess (KYM-1 (Rhabdomyosarcoma) [8])	Bliss excess [9]	Bliss excess [10]	Bliss excess [11]	Bliss excess [12]	Bliss excess [13]	Bliss excess [14]	Bliss excess [15]	Bliss excess [16]	Bliss excess [17]	Bliss excess [18]	Bliss excess [19]	Bliss excess [20]	combination Emax [21]	combination Emax (CHL-1 (Melanoma) [22])	combination Emax [23]	combination Emax [24]	combination Emax [25]	combination Emax [26]	combination Emax [27]	combination Emax (KYM-1 (Rhabdomyosarcoma) [28])	combination Emax [29]	combination Emax [30]	combination Emax [31]	combination Emax [32]	combination Emax [33]	combination Emax [34]	combination Emax [35]	combination Emax [36]	combination Emax [37]	combination Emax [38]	combination Emax [39]	combination Emax [40]
C[C@@H](Nc1cc(F)cc(F)c1)c1cc(C(=O)N(C)C)cc2c(=O)cc(N3CCOCC3)oc12 [AZD8186] + CC(=O)c1c(C)c2cnc(Nc3ccc(N4CCNCC4)cn3)nc2n(C2CCCC2)c1=O [Palbociclib] (first compound max 10 µM, 7x7, partner max 10 µM)	0.127	0.0104	-0.0045	0.0174	0.0129	0.0479	0.0091	-0.031	-0.0106	0.083	0.187	0.069	-0.0224	-0.0435	-0.0541	-0.0157	0.0852	0.0104	0.0299	-0.0005	0.628	0.458	0.931	0.729	0.399	0.599	0.728	0.702	0.355	0.554	0.504	0.602	0.371	0.83	0.137	0.343	0.469	0.497	0.35	0.503
N#Cc1cnc(Nc2cc(NC[C@H]3CNCCO3)c(C(F)(F)F)cn2)cn1 [SRA737] + Nc1ccn([C@@H]2O[C@H](CO)[C@@H](O)C2(F)F)c(=O)n1 [Gemcitabine] (first compound max 10 µM, 7x7, partner max 0.3 µM)	0.0323	0.0859	0.0539	-0.0824	0.125	0.124	0.149	-0.0294	0.0297	0.039	0.127	0.0184	0.112	0.0289	-0.0752	0.0122	0.0155	-0.042	0.112	0.0294	0.747	0.803	1	0.657	0.806	0.908	0.853	1	0.643	0.973	0.96	0.775	0.779	1	0.609	0.595	0.806	0.402	0.708	0.494
N#Cc1cnc(Nc2cc(NC[C@H]3CNCCO3)c(C(F)(F)F)cn2)cn1 [SRA737] + C=CCn1c(=O)c2cnc(Nc3ccc(N4CCN(C)CC4)cc3)nc2n1-c1cccc(C(C)(C)O)n1 [AZD1775] (first compound max 10 µM, partner max 1 µM)	0.176	0.0512	0.0611	0.0602	0.0314	-0.0189	0.0685	0.0382	0.0613	0.0718	0.138	-0.0377	0.0718	0.0732	-0.0401	-0.0172	0.0602	-0.0477	0.0284	-0.0677	0.705	0.837	1	0.864	0.798	0.803	0.732	0.947	0.561	0.943	1	0.77	0.81	0.976	0.425	0.42	0.882	0.35	0.452	0.277
